Test results published in ChEMBL document CHEMBL4402526, “Design and Synthesis of Fungal-Selective Resorcylate Aminopyrazole Hsp90 Inhibitors” (J Med Chem, 2020).
Calls of active or inactive are those of the source.

Columns and labels:
[1] = Displacement of Cy3-labeled geldanamycin from HSP90 in Candida albicans clinical isolate 2 cell lysate measured after […] by fluorescence polarization assay; assay type: subcellular
[2] = test system: Cryptococcus neoformans; experiment: Antifungal activity against Cryptococcus neoformans H99 assessed as fungal growth inhibition at <= […] uM measured after 48 hrs by resazurin assay; assay type: functional, organism-based
[3] = test system: Candida albicans; experiment: Antifungal activity against Candida albicans clinical isolate 2 assessed as fungal growth inhibition at <= […] uM measured after 48 hrs by resazurin assay; assay type: functional, organism-based
[4] = test system: Candida albicans; experiment: Fungicidal activity against Candida albicans clinical isolate 2 incubated for 48 hrs in presence of fluconazole followed by replating on YDP agar plate and measured after 24 hrs; assay type: functional, organism-based
[5] = Half life in CD-1 mouse liver microsomes at 1 uM measured up to 120 mins by LC-MS/MS analysis
[6] = Microsomal stability in CD-1 mouse liver microsomes assessed as parent compound remaining at 1 uM measured at 60 mins by LC-MS/MS analysis; assay type: ADME, Microsome; settings: read-out: Stability
[7] = test system: Candida albicans; experiment: Antifungal activity against Candida albicans clinical isolate 2 assessed as fungal growth inhibition measured after 48 hrs in presence of fluconazole by resazurin assay; assay type: functional; settings: clinical isolate 2, 48 h
[8] = Selectivity index, ratio of kd for binding affinity to recombinant human Hsp90 NBD expressed in Escherichia coli Rosetta2 to Kd for binding affinity to recombinant Candida albicans clinical isolate 2 HSP90 NBD (E7 to K218 residues) expressed in Escherichia coli Rosetta2
[9] = test system: Cryptococcus neoformans; experiment: Antifungal activity against Cryptococcus neoformans H99 assessed as fungal growth inhibition at < […] uM measured after 48 hrs by resazurin assay; assay type: functional, organism-based

SMILES | Activity [2] | Activity [3] | also measured
COc1ccc(Cn2nc(C)cc2Nc2cc(O)cc(O)c2C(=O)N(C)Cc2ccccc2)cc1 | Active | Active | EC50 [1]: > 6 µM
COc1ccc(Cn2nc(-c3ccccc3)cc2Nc2cc(O)cc(O)c2C(=O)N2Cc3ccccc3C2)cc1 | Active | Active | Activity [4]: Active
COc1ccc(Cn2nc(C)cc2Nc2cc(O)cc(O)c2C(=O)N(C)CC2CC2)cc1 | Active | Active | EC50 [1]: > 9 µM
CC(C)c1ccc(Cn2nccc2Nc2cc(O)cc(O)c2C(=O)N2Cc3ccccc3C2)cc1 | Active | Active | half-life at 2 h, 1 µM [5]: 3.1 min; remaining at 1 h, 1 µM [6]: 1.8%
Cn1nc(-c2ccc(OC(F)(F)F)cc2)cc1Nc1cc(O)cc(O)c1C(=O)N1Cc2ccccc2C1 | Active | Active | MIC [7]: 12.5 µM
Cn1nc(-c2ccc(OC(F)(F)F)cc2)cc1Nc1cc(O)cc(O)c1C(=O)N1Cc2cccnc2C1 | Active | Active | remaining at 1 h, 1 µM [6]: 3.9%
Cn1nc(-c2ccc(OC(F)(F)F)cc2)cc1Nc1cc(O)cc(O)c1C(=O)N1Cc2cn[nH]c2C1 | Active | Active | remaining at 1 h, 1 µM [6]: 20.6%
CCN(CC)C(=O)c1c(O)cc(O)cc1Nc1cc(-c2ccccc2)nn1Cc1ccc(OC)cc1 | Active | Active | EC50 [1]: > 10 µM
Cc1cc(Nc2cc(O)cc(O)c2C(=O)N2Cc3ccccc3C2)n(Cc2ccccc2Cl)n1 | Active | Active | Activity [4]: Active
Cn1nc(-c2ccc(C(C)(C)C)cc2)cc1Nc1cc(O)cc(O)c1C(=O)N1Cc2cn[nH]c2C1 | Active | Active | half-life at 2 h, 1 µM [5]: 6.44 min; remaining at 1 h, 1 µM [6]: 0.5%
Cn1nc(C2CCCCC2)cc1Nc1cc(O)cc(O)c1C(=O)N1Cc2cn[nH]c2C1 | Active | Active | half-life at 2 h, 1 µM [5]: 2.74 min; remaining at 1 h, 1 µM [6]: 0.06%
COc1ccc(Cn2nc(-c3ccccc3)cc2Nc2cc(O)cc(O)c2C(=O)N(C)CC2CC2)cc1 | Active | Active | EC50 [1]: > 9 µM
COc1cccc(-c2cc(Nc3cc(O)cc(O)c3C(=O)N3Cc4ccccc4C3)n(C)n2)c1 | Active | Active | half-life at 2 h, 1 µM [5]: 3.15 min; remaining at 1 h, 1 µM [6]: 0%
COc1cccc(-c2cc(Nc3cc(O)cc(O)c3C(=O)N3Cc4cn[nH]c4C3)n(C)n2)c1 | Active | Active | remaining at 1 h, 1 µM [6]: 7%
Cn1nc(-c2ccccc2)cc1Nc1cc(O)cc(O)c1C(=O)N1Cc2cccnc2C1 | Active | Active | 
CC(C)Cn1nc(-c2ccccc2)cc1Nc1cc(O)cc(O)c1C(=O)N1Cc2cn[nH]c2C1 | Active | Active | 
O=C(c1c(O)cc(O)cc1Nc1ccnn1CC1CCCCC1)N1Cc2ccccc2C1 | Active | Active | 
O=C(c1c(O)cc(O)cc1Nc1cc(-c2ccccc2)nn1C1CCCCC1)N1Cc2cn[nH]c2C1 | Active | Active | 
COc1ccc(Cn2nc(-c3ccccc3)cc2Nc2cc(O)cc(O)c2C(=O)N2Cc3ccc(NC4CCN(C)CC4)cc3C2)cc1 | Active | Active | 
Cc1ccccc1-c1cc(Nc2cc(O)cc(O)c2C(=O)N2Cc3cccnc3C2)n(C)n1 | Active | Active | 
O=C(c1c(O)cc(O)cc1Nc1ccnn1-c1ccccc1)N1Cc2cn[nH]c2C1 | Active | Active | 
CC(C)c1cc(Nc2cc(O)cc(O)c2C(=O)N2Cc3ccccc3C2)n(C)n1 | Active | Active | 
COc1ccc(Cn2nc(-c3ccccc3)cc2Nc2cc(O)cc(O)c2C(=O)N2Cc3cccc(F)c3C2)cc1 | Active | Active | 

SMILES | Activity [2] | Activity [3] | also measured
Cc1cccc(-c2cc(Nc3cc(O)cc(O)c3C(=O)N3Cc4cn[nH]c4C3)n(C)n2)c1 | Active | Active | half-life at 2 h, 1 µM [5]: 9.38 min; remaining at 1 h, 1 µM [6]: 1.8%
COc1ccc(CO\N=C2/C=C/C=C\[C@H]3O[C@@H]3C[C@@H](C)OC(=O)c3c(O)cc(O)cc3C2)cc1 |  |  | Selectivity Index [8]: > 25
COc1ccc(Cn2nc(-c3ccccc3)cc2Nc2cc(O)cc(O)c2C(=O)N2Cc3ccc(OCCN(C)C)cc3C2)cc1 | Active | Active | 
CC(C)Cn1nccc1Nc1cc(O)cc(O)c1C(=O)N1Cc2cn[nH]c2C1 | Active | Active | 
Cn1nc(-c2ccc(C(C)(C)C)cc2)cc1Nc1cc(O)cc(O)c1C(=O)N1Cc2ccccc2C1 | Active | Active | 
Cn1nc(C2CCCCC2)cc1Nc1cc(O)cc(O)c1C(=O)N1Cc2ccccc2C1 | Active | Active | 
COc1ccc(Cn2nc(-c3ccccc3)cc2Nc2cc(O)cc(O)c2C(=O)N2Cc3cccnc3C2)cc1 | Active | Active | 
COc1ccc(Cn2nc(C)cc2Nc2cc(O)cc(O)c2C(=O)N2Cc3cccnc3C2)cc1 | Active | Active | 
COc1cccc(-c2cc(Nc3cc(O)cc(O)c3C(=O)N3Cc4cccnc4C3)n(C)n2)c1 | Active | Active | half-life at 2 h, 1 µM [5]: 3.44 min; remaining at 1 h, 1 µM [6]: 0%
O=C(c1c(O)cc(O)cc1Nc1ccnn1Cc1ccco1)N1Cc2cccnc2C1 | Active | Active | 
COc1ccc(Cn2ncc(C)c2Nc2cc(O)cc(O)c2C(=O)N2Cc3ccccc3C2)cc1 | Active | Active | Activity [4]: Active
COc1ccc(-c2cc(Nc3cc(O)cc(O)c3C(=O)N3Cc4cn[nH]c4C3)n(C)n2)cc1 | Active | Active | 
CC(C)Cn1nc(-c2ccccc2)cc1Nc1cc(O)cc(O)c1C(=O)N1Cc2cccnc2C1 | Active | Active | 
O=C(c1c(O)cc(O)cc1Nc1ccnn1Cc1ccco1)N1Cc2cn[nH]c2C1 | Active | Active | 
CC(C)c1ccc(Cn2nccc2Nc2cc(O)cc(O)c2C(=O)N2Cc3cn[nH]c3C2)cc1 | Active | Active | 
Cc1ccccc1-c1cc(Nc2cc(O)cc(O)c2C(=O)N2Cc3ccccc3C2)n(C)n1 | Active | Active | Activity [9]: Active
Cc1ccc(Cn2nc(C)cc2Nc2cc(O)cc(O)c2C(=O)N2Cc3ccccc3C2)cc1 | Active | Active | 
O=C(c1c(O)cc(O)cc1Nc1ccnn1CC1CCCCC1)N1Cc2cn[nH]c2C1 | Active | Active | 
COc1ccc(Cn2nc(C(C)C)cc2Nc2cc(O)cc(O)c2C(=O)N2Cc3cccnc3C2)cc1 | Active | Active | 
COc1ccc(-c2cc(Nc3cc(O)cc(O)c3C(=O)N3Cc4ccccc4C3)n(C)n2)cc1 | Active | Active | 
COc1ccc(Cn2nc(C(C)C)cc2Nc2cc(O)cc(O)c2C(=O)N2Cc3cn[nH]c3C2)cc1 | Active | Active | 
COc1ccc(Cn2nc(-c3ccccc3)cc2Nc2cc(O)cc(O)c2C(=O)N2Cc3cn[nH]c3C2)cc1 | Active | Active | 
